Experimental data taken from patent US6858774B2, “MDR-like ABC transporter gene from plants” (Wisconsin Alumni Research Foundation, priority 1998, dated 2005).

What was measured:
[1] = tested on: wild type Arabidopsis seedlings; assay: Treatment of wild type seedlings, morphological phenotype; type: in vivo, Arabidopsis thaliana; conditions: 2,4-D or high concentrations of auxin
From the text: Expression of the plPAC gene of the present invention is inducible by auxin as described below in Example 4. Treatment of wild type Arabidopsis seedlings with 2,4-D or high concentrations of auxin result in plants with the same phenotype as that of ATPAC mutant plants. […] Under this model, tissues that express this pump would accumulate auxin as a result of the mutation and the altered auxin balance could be responsible for the altered growth patters typifying the ATPAC phenotype. Further support of this model is the similarity of auxin to indolylic substrates pumped by human MDR1, and the finding that ATPAC expression is increased by auxin.

[2] = biological target: T1, ATPAC (Arabidopsis thaliana, UniProt Q9LJX0, DUP906-907/P1064L); assay: NPA binding to yeast expressing ATPAC
T1 construct: The 3.76 kb cDNA clone encodes a polypeptide 1,254 amino acids in length; expressed in transfected cells; host or cells: yeast (wild type and a strain lacking seven ABC transporters)
From the text: Expression in Yeast and Xenopus Oocytes. ATPAC cDNA was expressed in wild type yeast as well as in yeasts lacking seven ABC transporters (as described by Decottignies et al., (1998) J. Biol. Chem. 273:12612-22)in order to create a heterologous system for studying function of the transporter. The yeasts were exposed to toxic compounds that are known substrates for human MDR1. […] Further, there was no evidence of a drug-pumping role for ATPAC.
ATPAC Binds the Auxin Transport Inhibitor naphthylphthalamic acid (NPA). Yeast expressing ATPAC was assayed for NPA binding. […] Bound NPA was not displaced by benzoic acid, a related hydrophobic organic acid. Proteins that bind NPA and influence auxin transport are considered important regulators of hormone action and therefore, of plant development.

T1 sequence (Q9LJX0 other isoform, or with tags, fused parts or gaps DUP906-907/P1064L): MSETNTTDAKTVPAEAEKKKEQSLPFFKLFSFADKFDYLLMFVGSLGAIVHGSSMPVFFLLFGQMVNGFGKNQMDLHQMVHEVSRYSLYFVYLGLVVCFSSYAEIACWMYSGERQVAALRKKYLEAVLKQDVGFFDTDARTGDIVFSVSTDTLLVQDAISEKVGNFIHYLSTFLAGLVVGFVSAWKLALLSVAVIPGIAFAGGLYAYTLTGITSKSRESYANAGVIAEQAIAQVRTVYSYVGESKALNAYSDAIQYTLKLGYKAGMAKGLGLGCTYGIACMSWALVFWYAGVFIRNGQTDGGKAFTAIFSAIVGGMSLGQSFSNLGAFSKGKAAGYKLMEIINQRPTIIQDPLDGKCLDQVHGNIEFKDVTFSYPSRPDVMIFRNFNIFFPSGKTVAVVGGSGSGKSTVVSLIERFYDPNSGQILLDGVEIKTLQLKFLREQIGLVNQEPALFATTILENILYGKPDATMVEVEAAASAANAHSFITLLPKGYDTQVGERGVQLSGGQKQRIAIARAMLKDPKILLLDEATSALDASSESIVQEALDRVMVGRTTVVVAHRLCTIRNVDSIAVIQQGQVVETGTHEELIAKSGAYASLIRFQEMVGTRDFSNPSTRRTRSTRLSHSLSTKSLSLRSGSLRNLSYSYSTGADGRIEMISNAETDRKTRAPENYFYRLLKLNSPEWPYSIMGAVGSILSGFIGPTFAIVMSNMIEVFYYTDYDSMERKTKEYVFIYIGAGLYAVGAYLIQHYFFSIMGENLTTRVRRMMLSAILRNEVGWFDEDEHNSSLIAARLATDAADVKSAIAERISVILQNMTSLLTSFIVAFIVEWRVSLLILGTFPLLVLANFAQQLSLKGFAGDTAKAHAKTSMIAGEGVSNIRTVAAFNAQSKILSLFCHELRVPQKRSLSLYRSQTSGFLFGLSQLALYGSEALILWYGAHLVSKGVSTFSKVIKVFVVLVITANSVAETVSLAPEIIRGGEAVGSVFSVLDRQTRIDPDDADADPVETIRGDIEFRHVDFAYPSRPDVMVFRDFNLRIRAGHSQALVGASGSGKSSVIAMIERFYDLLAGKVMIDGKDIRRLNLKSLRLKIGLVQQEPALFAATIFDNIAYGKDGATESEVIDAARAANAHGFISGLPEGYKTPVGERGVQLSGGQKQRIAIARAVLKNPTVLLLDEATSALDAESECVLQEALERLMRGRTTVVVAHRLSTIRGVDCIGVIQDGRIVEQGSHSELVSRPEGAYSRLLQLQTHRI

O=C(O)COc1ccc(Cl)cc1Cl [2,4-D]
Phenotype of treated wild type seedlings [1]: strongly curved organs

O=C(O)c1ccccc1C(=O)Nc1cccc2ccccc12 [NPA, naphthylphthalamic acid]
NPA binding to ATPAC-expressing yeast ([2]; ATPAC-expressing yeast): bound tightly and specifically | NPA binding to control yeast ([2]; control yeast): not to control yeast

O=C(O)Cc1c[nH]c2ccccc12 [auxin]
Phenotype of treated wild type seedlings [1]: strongly curved organs

O=C(O)c1ccccc1 [benzoic acid]
Displacement of bound NPA ([2]; ATPAC-expressing yeast, bound NPA): not displaced
